Experimental findings from patent publication US8883135B2, “Crystalline form of a pyridyl-piperazinyl hepatitis C virus inhibitor” (Theravance Biopharma R&D IP, LLC, priority 2012, dated 2014) are described below.

pEC50: −log10 of the molar value.

The term pEC50 denotes the negative decadic logarithm of the EC50, by convention in mol/L.

Data set [1] relates to HCV genotype 1a replicon cell line (Huh7.5 cell background). Nature of the data set: HCV Genotype 1a Replicon Assay. It is filed as cell-based. Conditions: Hepatitis C virus, NS3-specific protease activity in lysates, 48 or 72 hours incubation. As to the method:
The HCV genotype 1a replicon cell line was obtained from Apath LLC (APC89; Huh7.5 cell background). This subgenomic replicon contains the N-terminus of the HCV core protein fused to the neomycin-resistance selectable marker. The EMCV IRES lies downstream and drives expression of the non-structural proteins NS3-NS5B. Compound potencies were determined using the NS3-specific protease activity in lysates as a measurement of compound inhibition of replicon levels.
Cells were grown at 37° C. in a 5% CO2 humidified incubator in DMEM (Invitrogen) with 10% FBS (HyClone), 1×NEAA (Invitrogen), 1× Pen-Strep (Invitrogen), and 850 μg/mL G418 (Invitrogen). On day 1 of the assay, cells were plated at 15,000 cells/well in black 96-well tissue culture plates (Costar) in 200 μL media lacking G418. […]
To determine the NS3-specific protease activity in lysates, the cells were lysed at room temperature in 50 μL/well of 50 mM Hepes pH 7.5, 150 mM NaCl, 15% Glycerol, 0.15% Triton X-100, 10 mM DTT for 20 minutes with shaking. […] Protease activity was determined by measuring fluorescence (Excitation: 340 nm; Emission: 509 nm).
To analyze the data, the fluorescence was plotted vs. the compound concentration, and EC50 values were determined from a 4-parameter robust fit model using GraphPad Prism software.
(In general: In antiviral work, replicon cells carry a viral genome segment that copies itself.)

Data set [2] has as its system HCV replicon mutants genotype 1a Y93H, M28T, and Q30E. Nature of the data set: Replicon assays against resistant mutants (transient transfection, Huh-LUNET cells). The format is cell-based. The conditions noted are these: Hepatitis C virus, read-out: pEC50 (converted). The protocol: Potencies of test compounds against additional mutations of interest were determined using transient transfection assays. These mutants included genotype 1a Y93H, M28T, and Q30E. The mutation was first introduced into the parental plasmid by site-directed mutagenesis. The replicon plasmid was then linearized and in vitro transcribed to RNA. The RNA was used to transiently transfect Huh-LUNET cells (obtained from ReBLikon GmbH, Schriesheim, Germany) by electroporation, and the potencies of test compounds against the mutants were determined as previously described.

Data set [3] has as its system HCV genotype 1b replicon cell line (Huh7 cell background). Nature of the data set: HCV Genotype 1b Replicon Assay. It is filed as cell-based. The conditions noted are these: Hepatitis C virus, Huh-7, luciferase activity readout, 48 hours incubation. An excerpt: The HCV genotype 1b replicon cell line was obtained from Apath LLC (Brooklyn, N.Y.) (APC144; Huh7 cell background). This subgenomic replicon contains the N-terminus of the HCV core protein fused to the neomycin-resistance selectable marker. The EMCV IRES lies downstream and drives expression of humanized Renilla luciferase fused to the non-structural proteins NS3-NS5B. This cell line was used to determine compound potency using the luciferase activity readout as a measurement of compound inhibition of replicon levels.
Cells were grown at 37° C. in a 5% CO2 humidified incubator in DMEM (Invitrogen) with 10% FBS (HyClone), 1×NEAA (Invitrogen), 1× Pen-Strep (Invitrogen), and 500 μg/mL G418 (Invitrogen). On day 1 of the assay, cells were plated at 10,000 cells/well in white 96-well tissue culture plates (Costar) in 200 μL media lacking G418. […] At the end of the incubation period, media and compound were removed from the plates and the luciferase activity was determined using Promega Renilla-Glo reagents.
To analyze the data, the luciferase activity was plotted vs. the compound concentration, and EC50 values were determined from a 4-parameter robust fit model with the GraphPad Prism software package (GraphPad Software, Inc., San Diego, Calif.). Results are expressed as the negative decadic logarithm of the EC50 value, pEC50. […]

Data set [4] concerns HCV replicon resistant mutants: genotype 1b L31V and Y93H; genotype 1a Q30R and L31V. Nature of the data set: Replicon Assays Against Resistant Mutants (stably transfected Huh7 cells). It is filed as cell-based. The conditions noted are these: Hepatitis C virus, Huh-7, read-out: pEC50 (converted). As to the method:
To create replicon cells with resistant mutations of interest, the mutation was first introduced into the parental plasmid by site-directed mutagenesis. Mutations in genotype 1b included L31V and Y93H. Mutations in genotype 1a included Q30R and L31V. The replicon plasmid was then linearized and in vitro transcribed to RNA. The RNA was used to stably transfect Huh7 cells by electroporation, and new cell lines were selected with 500 μg/mL G418. Potencies of test compounds against these mutant cell lines were determined as previously described above for the HCV Genotype 1b and 1a replicon assays.

A short description of data set [5]: Dynamic Moisture Sorption Assessment. The format is physicochemical. Conditions: for deliquescence: exposed to up to about 90% relative humidity at room temperature; for change in solid form (powder diffraction pattern) after two sorption/desorption cycles: two DMS cycles, PXRD compared with the starting material. The protocol:
Dynamic moisture sorption (DMS) measurements were performed for each crystalline form using a VTI atmospheric microbalance, SGA-100 system (VTI Corp., Hialeah, Fla. 33016). A weighed sample was used and the humidity was lowest possible value (close to 0% RH) at the start of the analysis. […] The DMS run was performed isothermally at 25° C.

Setting [6] is: humidity range of 2% to 90% relative humidity at room temperature.

As for `CNC(=O)N1C[C@@H](C)N(c2ccc(C(=O)Nc3ccc(-c4ccc(-c5c[nH]c([C@@H]6CCCN6C(=O)[C@@H](NC(=O)OC)C(C)C)n5)cc4)c(OC(F)(F)F)c3)cn2)C[C@@H]1C` [Compound 1, ((S)-1-{(S)-2-[4-(4′-{[6-((2R,5S)-2,5-dimethyl-4-methylcarbamoyl-piperazin-1-yl)-pyridine-3-carbonyl]-amino}-2′-trifluoromethoxy-biphenyl-4-yl)-1H-imidazol-2-yl]-pyrrolidine-1-carbonyl}-2-methyl-propyl)-carbamic acid methyl ester], the pEC50 in data set [1] was no less than 10.00; in data set [3] it was no less than 11.00. Besides, the EC50 in data set [2] and in data set [4] was no more than 10 nM throughout.
As to `CNC(=O)N1C[C@@H](C)N(c2ccc(C(=O)Nc3ccc(-c4ccc(-c5c[nH]c([C@@H]6CCCN6C(=O)[C@@H](NC(=O)OC)C(C)C)n5)cc4)c(OC(F)(F)F)c3)cn2)C[C@@H]1C` [crystalline compound 1, Crystalline ((S)-1-{(S)-2-[4-(4′-{[6-((2R,5S)-2,5-Dimethyl-4-methylcarbamoyl-piperazin-1-yl)-pyridine-3-carbonyl]-amino}-2′-trifluoromethoxy-biphenyl-4-yl)-1H-imidazol-2-yl]-pyrrolidine-1-carbonyl}-2-methyl-propyl)-carbamic acid methyl ester], the deliquescence result in data set [5] is “neither crystalline compound 1 nor the anhydrous and hydrate forms of the crystalline dihydrochloride salt of compound 1 is deliquescent”. In addition, the “weight gain (dynamic moisture sorption)” value was “about 3%” in data set [5] (setting [6]) and no more than 3% in data set [5] (humidity range of 2% to 90% relative humidity at room temperature, listed as Crystalline compound 1). Further, the “change in solid form (powder diffraction pattern) after two sorption/desorption cycles” value in data set [5] is “no change in form”.
As for `CNC(=O)N1C[C@@H](C)N(c2ccc(C(=O)Nc3ccc(-c4ccc(-c5c[nH]c([C@@H]6CCCN6C(=O)[C@@H](NC(=O)OC)C(C)C)n5)cc4)c(OC(F)(F)F)c3)cn2)C[C@@H]1C.Cl.Cl.O` [monohydrate form, Crystalline ((S)-1-{(S)-2-[4-(4′-{[6-((2R,5S)-2,5-Dimethyl-4-methylcarbamoyl-piperazin-1-yl)-pyridine-3-carbonyl]-amino}-2′-trifluoromethoxy-biphenyl-4-yl)-1H-imidazol-2-yl]-pyrrolidine-1-carbonyl}-2-methyl-propyl)-carbamic acid methyl ester dihydrochloride Monohydrate Form], the “weight gain (dynamic moisture sorption)” value in data set [5] (at 90% relative humidity during the initial adsorption segment) was “about 2%”. Further, in data set [5], the deliquescence entry is “neither crystalline compound 1 nor the anhydrous and hydrate forms of the crystalline dihydrochloride salt of compound 1 is deliquescent”; the “change in solid form (powder diffraction pattern) after two sorption/desorption cycles” value was “no change in form”.
Take “Crystalline ((S)-1-{(S)-2-[4-(4′-{[6-((2R,5S)-2,5-Dimethyl-4-methylcarbamoyl-piperazin-1-yl)-pyridine-3-carbonyl]-amino}-2′-trifluoromethoxy-biphenyl-4-yl)-1H-imidazol-2-yl]-pyrrolidine-1-carbonyl}-2-methyl-propyl)-carbamic acid methyl ester dihydrochloride Anhydrous Form [anhydrous dihydrochloride salt]”: in data set [5], the deliquescence entry was “neither crystalline compound 1 nor the anhydrous and hydrate forms of the crystalline dihydrochloride salt of compound 1 is deliquescent”; the “change in solid form (powder diffraction pattern) after two sorption/desorption cycles” value is reported as “no change in form”. In addition, in data set [5] (setting [6]), the “weight gain (dynamic moisture sorption)” value was “about 0.8%”.
